Values after ≈ are worked out from the molar mass of the structure shown. Read-outs that look alike come from different tables or passages of the source.
Tests used:
[1] = system: E. faecalis SR7914; test: In vitro measurement of antibacterial activity (MIC, liquid dilution method); assay type: cell-based; settings: E. faecalis SR7914, vancomycin-resistant Enterococcus (VRE VanA); cation-adjusted Muller Hinton liquid medium; read-out: MIC (minimum growth inhibition concentration)
Protocol: (§1) Some of the present compounds were measured for a minimum growth inhibition concentration (MIC) by a small amount of liquid dilution method using a cation-adjusted Muller Hinton liquid medium well-known to a person skilled in the art.

[2] = system: E. faecium SR7940; test: as above; assay type: cell-based; settings: Enterococcus faecium
Protocol: as §1

[3] = E. faecium SR7940, cation-adjusted Muller Hinton liquid medium, read-out: MIC (minimum growth inhibition concentration)

MIC [1] [µg/mL] | MIC [2, 3] [µg/mL] | SMILES | MIC ([2]; SR7940, read-out: MIC (minimum growth inhibition concentration)) [µg/mL]
2 to 4 (≈ 1.1 to 2.21 µM) | 1 to 4 (≈ 0.552 to 2.21 µM) | CN[C@H](CC(C)C)C(=O)NC1C(=O)N[C@@H](CC(N)=O)C(=O)N[C@H]2C(=O)N[C@H]3C(=O)N[C@H](C(=O)N[C@@H](C(=O)O)c4cc(O)cc(O)c4-c4cc3ccc4O)[C@H](OC3C[C@](C)(N)[C@@H](O)[C@H](C)O3)c3ccc(c(Cl)c3)Oc3cc2cc(c3O[C@@H]2O[C@H](CO)[C@@H](O[C@@H]3O[C@H](CNCc4ccc(Oc5ccc(F)cc5)cc4)[C@H](O)[C@H](O)[C@H]3O)[C@H](O)[C@H]2O)Oc2ccc(cc2Cl)[C@H]1O (stereo partly drawn) [Example 50] | –
2 to 4 (≈ 1.1 to 2.2 µM) | 1 to 4 (≈ 0.55 to 2.2 µM) | CN[C@H](CC(C)C)C(=O)NC1C(=O)N[C@@H](CC(N)=O)C(=O)N[C@H]2C(=O)N[C@H]3C(=O)N[C@H](C(=O)N[C@@H](C(=O)O)c4cc(O)cc(O)c4-c4cc3ccc4O)[C@H](O[C@H]3C[C@](C)(N)[C@@H](O)[C@H](C)O3)c3ccc(c(Cl)c3)Oc3cc2cc(c3O[C@@H]2O[C@H](CO)[C@@H](O[C@@H]3O[C@H](CNCc4ccc(-c5ccc(Cl)cc5)s4)[C@H](O)[C@H](O)[C@H]3O)[C@H](O)[C@H]2O)Oc2ccc(cc2Cl)[C@H]1O (stereo partly drawn) [Example 13] | –
2 to 4 (≈ 1 to 2.01 µM) | 1 to 4 (≈ 0.501 to 2.01 µM) | CN[C@H](CC(C)C)C(=O)NC1C(=O)N[C@@H](CC(N)=O)C(=O)N[C@H]2C(=O)N[C@H]3C(=O)N[C@H](C(=O)N[C@@H](C(=O)O)c4cc(O)cc(O)c4-c4cc3ccc4O)[C@H](O[C@H]3C[C@](C)(NCc4cccnc4)[C@@H](O)[C@H](C)O3)c3ccc(c(Cl)c3)Oc3cc2cc(c3O[C@@H]2O[C@H](CO)[C@@H](O[C@@H]3O[C@H](CNCc4cccc(NC(=O)c5cccc(OC(F)(F)F)c5)c4)[C@H](O)[C@H](O)[C@H]3O)[C@H](O)[C@H]2O)Oc2ccc(cc2Cl)[C@H]1O (stereo partly drawn) [Example 31] | –
2 to 4 (≈ 1.05 to 2.1 µM) | 1 to 4 (≈ 0.526 to 2.1 µM) | CN[C@H](CC(C)C)C(=O)N[C@H]1C(=O)N[C@@H](CC(N)=O)C(=O)N[C@H]2C(=O)N[C@H]3C(=O)N[C@H](C(=O)N[C@@H](C(=O)O)c4cc(O)cc(O)c4-c4cc3ccc4O)[C@H](OC3C[C@](C)(N)[C@@H](O)[C@H](C)O3)c3ccc(c(Cl)c3)Oc3cc2cc(c3O[C@@H]2O[C@H](CO)[C@@H](O[C@@H]3O[C@H](CNCc4ccc(C(=O)NCc5ccc(Cl)c(Cl)c5)cc4)[C@H](O)[C@H](O)[C@H]3O)[C@H](O)[C@H]2O)Oc2ccc(cc2Cl)[C@H]1O (stereo partly drawn) [Example 69] | –
2 to 4 (≈ 1.1 to 2.21 µM) | 1 to 4 (≈ 0.552 to 2.21 µM) | CN[C@H](CC(C)C)C(=O)NC1C(=O)NC(CC(N)=O)C(=O)N[C@H]2C(=O)NC3C(=O)N[C@H](C(=O)N[C@H](C(=O)O)c4cc(O)cc(O)c4-c4cc3ccc4O)[C@H](OC3C[C@](C)(N)[C@@H](O)[C@H](C)O3)c3ccc(c(Cl)c3)Oc3cc2cc(c3O[C@@H]2O[C@H](CO)[C@@H](O[C@@H]3O[C@H](CNCc4ccc(-c5ccc(Cl)cc5)nc4)[C@H](O)[C@H](O)[C@H]3O)[C@H](O)[C@H]2O)Oc2ccc(cc2Cl)[C@H]1O (stereo partly drawn) [Example 45] | –
2 to 4 (≈ 1.1 to 2.2 µM) | 1 to 4 (≈ 0.55 to 2.2 µM) | CN[C@H](CC(C)C)C(=O)N[C@H]1C(=O)N[C@@H](CC(N)=O)C(=O)N[C@H]2C(=O)N[C@H]3C(=O)N[C@H](C(=O)N[C@@H](C(=O)O)c4cc(O)cc(O)c4-c4cc3ccc4O)[C@H](O[C@H]3C[C@](C)(N)[C@@H](O)[C@H](C)O3)c3ccc(c(Cl)c3)Oc3cc2cc(c3O[C@@H]2O[C@H](CO)[C@@H](O[C@@H]3O[C@H](CNCc4ccc(-c5cc(F)cc(F)c5)s4)[C@H](O)[C@H](O)[C@H]3O)[C@H](O)[C@H]2O)Oc2ccc(cc2Cl)[C@H]1O [Example 82] | –
2 to 4 (≈ 1.01 to 2.02 µM) | 1 to 4 (≈ 0.504 to 2.02 µM) | CN[C@H](CC(C)C)C(=O)NC1C(=O)N[C@@H](CC(N)=O)C(=O)N[C@H]2C(=O)N[C@H]3C(=O)N[C@H](C(=O)N[C@@H](C(=O)O)c4cc(O)cc(O)c4-c4cc3ccc4O)[C@H](O[C@H]3C[C@](C)(NCc4c[nH]cn4)[C@@H](O)[C@H](C)O3)c3ccc(c(Cl)c3)Oc3cc2cc(c3O[C@@H]2O[C@H](CO)[C@@H](O[C@@H]3O[C@H](CNCc4cccc(NC(=O)c5cccc(OC(F)(F)F)c5)c4)[C@H](O)[C@H](O)[C@H]3O)[C@H](O)[C@H]2O)Oc2ccc(cc2Cl)[C@H]1O (stereo partly drawn) [Example 30] | –
2 to 4 (≈ 1.1 to 2.21 µM) | 1 to 4 (≈ 0.551 to 2.21 µM) | CN[C@H](CC(C)C)C(=O)NC1C(=O)NC(CC(N)=O)C(=O)N[C@H]2C(=O)NC3C(=O)N[C@H](C(=O)NC(C(=O)O)c4cc(O)cc(O)c4-c4cc3ccc4O)[C@H](O[C@H]3C[C@](C)(N)[C@@H](O)[C@H](C)O3)c3ccc(c(Cl)c3)Oc3cc2cc(c3O[C@@H]2O[C@H](CO)[C@@H](O[C@@H]3O[C@H](CNCc4ccc(-c5ccc(F)c(F)c5)nc4)[C@H](O)[C@H](O)[C@H]3O)[C@H](O)[C@H]2O)Oc2ccc(cc2Cl)[C@H]1O (stereo partly drawn) [Example 88] | –
2 to 4 (≈ 1.12 to 2.24 µM) | 1 to 4 (≈ 0.559 to 2.24 µM) | CN[C@H](CC(C)C)C(=O)N[C@H]1C(=O)N[C@@H](CC(N)=O)C(=O)N[C@H]2C(=O)N[C@H]3C(=O)N[C@H](C(=O)N[C@@H](C(=O)O)c4cc(O)cc(O)c4-c4cc3ccc4O)[C@H](OC3C[C@](C)(N)[C@@H](O)[C@H](C)O3)c3ccc(c(Cl)c3)Oc3cc2cc(c3O[C@@H]2O[C@H](CO)[C@@H](O[C@@H]3O[C@H](CNCc4ccc(-c5cccs5)s4)[C@H](O)[C@H](O)[C@H]3O)[C@H](O)[C@H]2O)Oc2ccc(cc2Cl)[C@H]1O (stereo partly drawn) [Example 75] | –
2 to 4 (≈ 1.03 to 2.07 µM) | 1 to 4 (≈ 0.517 to 2.07 µM) | CN[C@H](CC(C)C)C(=O)NC1C(=O)NC(CC(N)=O)C(=O)N[C@H]2C(=O)NC3C(=O)N[C@H](C(=O)N[C@H](C(=O)O)c4cc(O)cc(O)c4-c4cc3ccc4O)[C@H](O[C@H]3C[C@](C)(N)[C@@H](O)[C@H](C)O3)c3ccc(c(Cl)c3)Oc3cc2cc(c3O[C@@H]2O[C@H](CO)[C@@H](O[C@@H]3O[C@H](CNCCn4ccc(NC(=O)c5ccc(OC(F)(F)F)cc5)nc4=O)[C@H](O)[C@H](O)[C@H]3O)[C@H](O)[C@H]2O)Oc2ccc(cc2Cl)[C@H]1O (stereo partly drawn) [Example 11] | –
2 to 4 (≈ 1.11 to 2.22 µM) | 1 to 4 (≈ 0.555 to 2.22 µM) | CN[C@H](CC(C)C)C(=O)NC1C(=O)NC(CC(N)=O)C(=O)N[C@H]2C(=O)NC3C(=O)N[C@H](C(=O)N[C@H](C(=O)O)c4cc(O)cc(O)c4-c4cc3ccc4O)[C@H](OC3C[C@](C)(N)[C@@H](O)[C@H](C)O3)c3ccc(c(Cl)c3)Oc3cc2cc(c3O[C@@H]2O[C@H](CO)[C@@H](O[C@@H]3O[C@H](CNCc4ccc(-c5cccc(F)c5)s4)[C@H](O)[C@H](O)[C@H]3O)[C@H](O)[C@H]2O)Oc2ccc(cc2Cl)[C@H]1O (stereo partly drawn) [Example 43] | –
2 to 4 (≈ 1.1 to 2.21 µM) | 1 to 4 (≈ 0.552 to 2.21 µM) | CN[C@H](CC(C)C)C(=O)N[C@H]1C(=O)N[C@@H](CC(N)=O)C(=O)N[C@H]2C(=O)N[C@H]3C(=O)N[C@H](C(=O)N[C@@H](C(=O)O)c4cc(O)cc(O)c4-c4cc3ccc4O)[C@H](O[C@H]3C[C@](C)(N)[C@@H](O)[C@H](C)O3)c3ccc(c(Cl)c3)Oc3cc2cc(c3O[C@@H]2O[C@H](CO)[C@@H](O[C@@H]3O[C@H](CNCc4ccc(-c5ccc(OC)cc5)s4)[C@H](O)[C@H](O)[C@H]3O)[C@H](O)[C@H]2O)Oc2ccc(cc2Cl)[C@H]1O [Example 83] | –
– | – | CN[C@H](CC(C)C)C(=O)N[C@H]1C(=O)N[C@@H](CC(N)=O)C(=O)N[C@H]2C(=O)N[C@H]3C(=O)NC(C(=O)N[C@@H](C(=O)O)c4cc(O)cc(O)c4-c4cc3ccc4O)[C@H](O)c3ccc(c(Cl)c3)Oc3cc2cc(c3OC2O[C@H](CO)[C@@H](O)[C@H](O)[C@H]2OC2C[C@](C)(N)[C@H](O)[C@H](C)O2)Oc2ccc(cc2Cl)[C@H]1O (stereo partly drawn) [vancomycin, reference compound] | > 64
2 to 4 (≈ 1.13 to 2.27 µM) | 1 to 4 (≈ 0.566 to 2.27 µM) | CN[C@H](CC(C)C)C(=O)N[C@H]1C(=O)N[C@@H](CC(N)=O)C(=O)N[C@H]2C(=O)N[C@H]3C(=O)N[C@H](C(=O)N[C@@H](C(=O)O)c4cc(O)cc(O)c4-c4cc3ccc4O)[C@H](OC3C[C@](C)(N)[C@@H](O)[C@H](C)O3)c3ccc(c(Cl)c3)Oc3cc2cc(c3O[C@@H]2O[C@H](CO)[C@@H](O[C@@H]3O[C@H](CNCc4ccc(-n5cccc5)cc4)[C@H](O)[C@H](O)[C@H]3O)[C@H](O)[C@H]2O)Oc2ccc(cc2Cl)[C@H]1O (stereo partly drawn) [Example 65] | –
